Patent publication US8835115B2, “ABCB1 genotyping to predict microtubule-stabilizing-agent-induced toxicity” (The United States of America as represented by the …, priority 2006, dated 2014)
Marks after values point to notes of the source that are not given here.

Assays:
[1] = tested on: men with androgen-independent prostate cancer; assay: Clinical grade of neutropenia in docetaxel-treated patients by ABCB1 genotype; assay type: in vivo, human
Protocol: (§1) ABCB1 genotypes were evaluated in patients from a trial involving 73 men with androgen-independent prostate cancer that were treated with either docetaxel alone or docetaxel in combination with thalidomide. Patients were administered docetaxel intravenously (30 mg/m2) over 1 hour every week for 3 consecutive weeks (n=23). Some patients additionally received 200 mg of thalidomide orally each day (n=50). Toxicity was defined by Cancer Therapy Evaluation Program/National Cancer Institute Common Toxicity Criteria (version 2.0) and patients were evaluated for symptoms of toxicity weekly.

[2] = tested on: men with androgen-independent prostate cancer; assay: Docetaxel-induced peripheral neuropathy by ABCB1 2677 genotype; assay type: in vivo, human; settings: docetaxel 30 mg/m2 iv weekly for 3 consecutive weeks
Protocol: as §1

[3] = tested on: subjects with locally advanced or metastatic cancer; settings: both, human, in vivo
Protocol: (§2) Twenty-six subjects were examined. There were 14 male subjects and 12 female subjects with a median age of 59.5 years (range: 42-72). The subjects were treated with weekly one- or three-hour paclitaxel infusions. All subjects had histologically proven, locally advanced or metastatic cancer, for which paclitaxel as monotherapy was a therapeutic option.
(§3) Paclitaxel (30 mg) formulated in a mixture of Cremophor and absolute:ethanol (1:1, vol/vol) (Bristol Myers Squibb, Munich, Germany) was diluted in 500 mL of 5% (weight/vol) dextrose in water and administered to subjects via a peripheral or central venous catheter using a motor-driven programmable infusion pump. Eligible subjects were randomized between a one hour and three hour infusion duration to receive a total of six weekly intravenous infusions of paclitaxel at a dose of 100 mg/m^2. After six weeks of therapy (defined as one cycle) response was evaluated bi-dimensionally, usually by computed tomography. Subjects with a stable disease, partial response or complete response after one cycle received a second cycle, provided toxic effects were not prohibitive.
All data are reported as median values with the associated 95% CI, unless specified otherwise.

[4] = Paclitaxel pharmacokinetics in plasma of treated subjects by ABCB1 genotype; settings: for AUCp, area under the curve of total paclitaxel, Median (95% CI) / AUCu, area under the curve of unbound paclitaxel, Median (95% CI) / T > 0.05 μM, duration of total plasma concentration of paclitaxel exceeding 0.05 μM, Median (95% CI): 100 mg/m^2 iv infusion, first administration
Protocol: as §2, §3
Blood samples were obtained from the subjects described in Example 1 during the first paclitaxel administration at baseline and at serial time points during and after infusion. Concentrations of total paclitaxel in plasma were determined by a validated method based on reversed-phase high performance liquid chromatography with ultraviolet detection, while unbound paclitaxel plasma concentrations were determined by micro-equilibrium dialysis using a [G-^3H]paclitaxel tracer. Pertinent pharmacokinetic parameters were calculated by non-compartmental methods using WinNonlin® version 5.0 (Pharsight, Mountain View, Calif., USA).
All data are reported as median values with the associated 95% CI, unless specified otherwise. Interindividual pharmacokinetic variability was assessed as the coefficient of variation, and expressed as a percentage. The associations of the variant genotypes with individual pharmacokinetic parameters were evaluated statistically with the nonparametric Kruskal-Wallis test. All P values are two-tailed, and those less than or equal to 0.05 were considered to reflect statistically significant results.

[5] = tested on: subjects with locally advanced or metastatic cancer; assay: Cumulative peripheral neuropathy (clinical score >3) during weekly paclitaxel therapy by ABCB1 genotype; assay type: in vivo, human; settings: weekly paclitaxel 100 mg/m^2, 12 weeks
Text: Twenty-six subjects were examined.
Prior to therapy, and if possible after six and twelve weeks of therapy, these examinations were supplemented by the evaluation of the peripheral neuropathy score, clinical chemistries (serum creatinine, transaminases, alkaline phosphatase, and bilirubin), electrocardiogram analysis and performance status. For the assessment of neurotoxicity a standardized clinical peripheral neuropathy scoring system was used, which included questioning subjects' symptoms, requiring a clinical examination based on a tuning fork test, and an evaluation of strength and peripheral reflexes. This individual clinical score could range from 0 (best) to 12 (worst) points, and based on the inclusion criteria of this trial, peripheral neuropathy was defined as an event when the score exceeded a value of 3 for the first time. A score had to be obtained, at a minimum, prior to and after six and twelve weeks of therapy in order for subjects to be included.
The probability of development of a peripheral neuropathy during paclitaxel therapy as a function of time, according to various genotypes, was analyzed using the Kaplan-Meier method. Statistical significance of the differences between Kaplan-Meier curves was determined using an exact log rank test. […]

[6] = genotype 2677TT + 3435TT, 11 patients in total
[7] = other ABCB1 genotypes, 39 patients in total
[8] = of the 15 subjects wild-type for ABCB1 2677G>T/A
[9] = subjects carrying at least one variant allele at ABCB1 2677
[10] = ABCB1 1236C>T heterozygous (N=17)
[11] = ABCB1 1236C>T variant (N=4), range quoted instead of 95% CI
[12] = ABCB1 1236C>T wild-type (N=5), range quoted instead of 95% CI
[13] = ABCB1 2677G>T heterozygous (N=13)
[14] = ABCB1 2677G>T wild-type (N=2), range quoted instead of 95% CI
[15] = ABCB1 3435C>T heterozygous (N=14)
[16] = ABCB1 3435C>T wild-type (N=4), range quoted instead of 95% CI

Compound: CC(=O)O[C@@]12CO[C@@H]1C[C@H](O)[C@@]1(C)C(=O)[C@H](O)C3=C(C)[C@@H](OC(=O)[C@H](O)[C@@H](NC(=O)OC(C)(C)C)c4ccccc4)C[C@@](O)([C@@H](OC(=O)c4ccccc4)[C@H]21)C3(C)C [docetaxel, (2R,3S)—N-carboxy-3-phenylisoserine,N-tert-butyl ester, 13-ester with 5β-20-epoxy-1,2α,4,7β,10β,13α-hexahydroxytax-11-en-9-one 4-acetate 2-benzoate, trihydrate]
- # Patients with Clinical Grade of Neutropenia, Grade 0 [1, 6]: 8 patients
- # Patients with Clinical Grade of Neutropenia, Grade 2 [1, 6]: 0 patients
- # Patients with Clinical Grade of Neutropenia, Grade 3 [1, 6]: 3 patients
- # Patients with Clinical Grade of Neutropenia, Grade 0 [1, 7]: 35 patients
- # Patients with Clinical Grade of Neutropenia, Grade 2 [1, 7]: 3 patients
- # Patients with Clinical Grade of Neutropenia, Grade 3 [1, 7]: 1 patients
- subjects who developed peripheral neuropathy during the observation period [2, 8]: 11 subjects
- subjects who did not develop peripheral neuropathy during the observation period [2, 8]: 4 subjects
- subjects who developed peripheral neuropathy during the observation period [2, 9]: 32 of 35
- subjects who did not develop peripheral neuropathy during the observation period [2, 9]: 3 of 35

Compound: CC(=O)O[C@H]1C(=O)[C@@]2(C)[C@H]([C@H](OC(=O)c3ccccc3)[C@]3(O)C[C@H](OC(=O)[C@H](O)[C@@H](NC(=O)c4ccccc4)c4ccccc4)C(C)=C1C3(C)C)[C@]1(OC(C)=O)CO[C@@H]1C[C@@H]2O [paclitaxel, 5β,20-Epoxy-1,2α,4,7β,10β,13α-hexahydroxytax-11-en-9-one 4,10-diacetate 2-benzoate 13-ester with (2R,3S)—N-benzoyl-3-phenylisoserine]
- fold greater percent decrease in neutrophil count at nadir, double variant versus rest of the population [3]: approximately 1.5 fold
- association of ABCB1 genotypes with paclitaxel pharmacokinetic parameters ([4]; 26 subjects, ABCB1 1236C>T, 2677G>T, 3435C>T, Kruskal-Wallis test): none of the studied ABCB1 genotypes were associated with interindividual differences
- AUCp, area under the curve of total paclitaxel, Median (95% CI) [4, 10]: 5264 (3879-6235) (ng/mL) × hr
- AUCu, area under the curve of unbound paclitaxel, Median (95% CI) [4, 10]: 470 (445-519) (ng/mL) × hrs
- T > 0.05 μM, duration of total plasma concentration of paclitaxel exceeding 0.05 μM, Median (95% CI) ([4]; ABCB1 1236C>T heterozygous (N=17, one patient without data)): 15.6 (9.3-19.3)* hours
- AUCp, area under the curve of total paclitaxel, Median (95% CI) [4, 11]: 3547 (2309-5600) (ng/mL) × hr
- AUCu, area under the curve of unbound paclitaxel, Median (95% CI) [4, 11]: 407 (362-522) (ng/mL) × hrs
- T > 0.05 μM, duration of total plasma concentration of paclitaxel exceeding 0.05 μM, Median (95% CI) [4, 11]: 15.6 (8.8-24.9) hours
- AUCp, area under the curve of total paclitaxel, Median (95% CI) [4, 12]: 4657 (2909-9916) (ng/mL) × hr
- T > 0.05 μM, duration of total plasma concentration of paclitaxel exceeding 0.05 μM, Median (95% CI) [4, 12]: 20.3 (8.8-34.2) hours
- AUCp, area under the curve of total paclitaxel, Median (95% CI) [4, 13]: 5146 (3776-7762) (ng/mL) × hr
- AUCu, area under the curve of unbound paclitaxel, Median (95% CI) [4, 13]: 482 (371-641) (ng/mL) × hrs
- T > 0.05 μM, duration of total plasma concentration of paclitaxel exceeding 0.05 μM, Median (95% CI) ([4]; ABCB1 2677G>T heterozygous (N=13, one patient without data)): 17.3 (9.6-20.7)* hours
- AUCp, area under the curve of total paclitaxel, Median (95% CI) ([4]; ABCB1 2677G>T variant (N=11)): 4203 (2309-5600) (ng/mL) × hr
- AUCu, area under the curve of unbound paclitaxel, Median (95% CI) ([4]; ABCB1 2677G>T variant (N=11)): 445 (362-516) (ng/mL) × hrs
- T > 0.05 μM, duration of total plasma concentration of paclitaxel exceeding 0.05 μM, Median (95% CI) ([4]; ABCB1 2677G>T variant (N=11)): 12.6 (8.8-19.8) hours
- AUCp, area under the curve of total paclitaxel, Median (95% CI) [4, 14]: 3348 (2909-3787) (ng/mL) × hr
- AUCu, area under the curve of unbound paclitaxel, Median (95% CI) [4, 14]: 540 (507-572) (ng/mL) × hrs
- T > 0.05 μM, duration of total plasma concentration of paclitaxel exceeding 0.05 μM, Median (95% CI) [4, 14]: 15.1 (8.8-21.3) hours
- AUCp, area under the curve of total paclitaxel, Median (95% CI) [4, 15]: 5485 (3787-6344) (ng/mL) × hr
- AUCu, area under the curve of unbound paclitaxel, Median (95% CI) [4, 15]: 512 (432-523) (ng/mL) × hrs
- T > 0.05 μM, duration of total plasma concentration of paclitaxel exceeding 0.05 μM, Median (95% CI) ([4]; ABCB1 3435C>T heterozygous (N=14, one patient without data)): 19.8 (10.5-21.3)* hours
- AUCp, area under the curve of total paclitaxel, Median (95% CI) ([4]; ABCB1 3435C>T variant (N=8)): 3656 (2259-5600) (ng/mL) × hr
- AUCu, area under the curve of unbound paclitaxel, Median (95% CI) ([4]; ABCB1 3435C>T variant (N=8)): 448 (362-522) (ng/mL) × hrs
- T > 0.05 μM, duration of total plasma concentration of paclitaxel exceeding 0.05 μM, Median (95% CI) ([4]; ABCB1 3435C>T variant (N=8)): 13.7 (8.7-18.9) hours
- AUCp, area under the curve of total paclitaxel, Median (95% CI) [4, 16]: 4534 (2909-5146) (ng/mL) × hr
- AUCu, area under the curve of unbound paclitaxel, Median (95% CI) [4, 16]: 420 (313-572) (ng/mL) × hrs
- development of peripheral neuropathy during the observation period ([5]; four subjects wild-type for ABCB1 3435C>T (3435CC)): did not develop peripheral neuropathy
- subjects who developed peripheral neuropathy ([5]; subjects carrying at least one variant allele at ABCB1 3435 (CT or TT)): 17 of 18
